Results as given in the supplement of paper PMC10307832.

Tests used:
Test in all cases: relative viability (nuclei count vs DMSO), 5 days (fraction); higher = more cells survive
[1] = compound: CCN1CCN(c2ccc(Nc3cc(N(C)C(=O)Nc4c(Cl)c(OC)cc(OC)c4Cl)ncn3)cc2)CC1 [BGJ398] + Cc1nc(NC(=O)N2CCC[C@H]2C(N)=O)sc1-c1ccnc(C(C)(C)C(F)(F)F)c1 [Alpelisib] (partner 2 µM)
In short: (§1)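 Lung cancer cell lines in 1536-well plates were dosed by pin tool the day after seeding, either with one drug alone or with a fixed anchor-drug dose plus five library-drug doses (not always all listed) in √10 steps. After 5 days, cells were fixed and their nuclei stained in one step (final 0.05% Triton X-100, 1% formaldehyde, 1 ug/ml Hoechst), then counted on 4× images. Relative viability is the nuclei count in treated wells divided by that in vehicle wells. Values are medians of duplicate plates.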

[2] = compound: C1=CC2=NC=CN=C2C=C1/C=C/3\C(=O)NC(=O)S3 + COc1cccc2cc(-c3nc([C@H]4CC[C@H](C(=O)O)CC4)n4ncnc(N)c34)[nH]c12 [OSI-027] (partner 0.5 µM)
In short: as §1

[3] = compound: C1=CC2=NC=CN=C2C=C1/C=C/3\C(=O)NC(=O)S3 + Cc1cc(Nc2cc(N3CCN(C)CC3)nc(Sc3ccc(NC(=O)C4CC4)cc3)n2)n[nH]1 [Tozasertib] (partner 0.1 µM)
In short: as §1

[4] = compound: C1=CC2=NC=CN=C2C=C1/C=C/3\C(=O)NC(=O)S3 + NC(=O)Nc1cc(-c2cccc(F)c2)sc1C(=O)N[C@H]1CCCNC1 [AZD7762] (partner 0.2 µM)
In short: as §1

## NCI-H1755
[1]; first compound 0.01 µM
  relative viability: 0.861
[1]; first compound 0.03162 µM
  relative viability: 0.965
[1]; first compound 0.1 µM
  relative viability: 1.05
[1]; first compound 0.3162 µM
  relative viability: 0.908
[1]; first compound 1 µM
  relative viability: 0.889
[2]; first compound 0.02 µM
  relative viability: 0.712
[2]; first compound 0.06325 µM
  relative viability: 0.838
[2]; first compound 0.2 µM
  relative viability: 0.71
[2]; first compound 0.6325 µM
  relative viability: 0.699
[2]; first compound 2 µM
  relative viability: 0.575
[3]; first compound 0.02 µM
  relative viability: 0.585
[3]; first compound 0.06325 µM
  relative viability: 0.562
[3]; first compound 0.2 µM
  relative viability: 0.66
[3]; first compound 0.6325 µM
  relative viability: 0.51
[3]; first compound 2 µM
  relative viability: 0.49
[4]; first compound 0.02 µM
  relative viability: 0.473
[4]; first compound 0.06325 µM
  relative viability: 0.405
[4]; first compound 0.2 µM
  relative viability: 0.47
[4]; first compound 0.6325 µM
  relative viability: 0.399
[4]; first compound 2 µM
  relative viability: 0.476

## HARA
[1]; first compound 0.01 µM
  relative viability: 0.784
[1]; first compound 0.03162 µM
  relative viability: 0.635
[1]; first compound 0.1 µM
  relative viability: 0.752
[1]; first compound 0.3162 µM
  relative viability: 0.817
[1]; first compound 1 µM
  relative viability: 0.787
[2]; first compound 0.02 µM
  relative viability: 0.482
[2]; first compound 0.06325 µM
  relative viability: 0.396
[2]; first compound 0.2 µM
  relative viability: 0.586
[2]; first compound 0.6325 µM
  relative viability: 0.43
[2]; first compound 2 µM
  relative viability: 0.195
[3]; first compound 0.02 µM
  relative viability: 0.0982
[3]; first compound 0.06325 µM
  relative viability: 0.133
[3]; first compound 0.2 µM
  relative viability: 0.128
[3]; first compound 0.6325 µM
  relative viability: 0.104
[3]; first compound 2 µM
  relative viability: 0.11
[4]; first compound 0.02 µM
  relative viability: 0.255
[4]; first compound 0.06325 µM
  relative viability: 0.209
[4]; first compound 0.2 µM
  relative viability: 0.402
[4]; first compound 0.6325 µM
  relative viability: 0.276
[4]; first compound 2 µM
  relative viability: 0.493

## NCI-H596
[1]; first compound 0.01 µM
  relative viability: 0.608
[1]; first compound 0.03162 µM
  relative viability: 0.442
[1]; first compound 0.1 µM
  relative viability: 0.506
[1]; first compound 0.3162 µM
  relative viability: 0.441
[1]; first compound 1 µM
  relative viability: 0.561
[2]; first compound 0.02 µM
  relative viability: 0.749
[2]; first compound 0.06325 µM
  relative viability: 0.542
[2]; first compound 0.2 µM
  relative viability: 0.875
[2]; first compound 0.6325 µM
  relative viability: 0.677
[2]; first compound 2 µM
  relative viability: 0.532
[3]; first compound 0.02 µM
  relative viability: 0.934
[3]; first compound 0.06325 µM
  relative viability: 0.951
[3]; first compound 0.2 µM
  relative viability: 1.1
[3]; first compound 0.6325 µM
  relative viability: 0.733
[3]; first compound 2 µM
  relative viability: 0.902
[4]; first compound 0.02 µM
  relative viability: 1.15
[4]; first compound 0.06325 µM
  relative viability: 1.14
[4]; first compound 0.2 µM
  relative viability: 1.19
[4]; first compound 0.6325 µM
  relative viability: 0.907
[4]; first compound 2 µM
  relative viability: 0.956

## NCI-H23
[1]; first compound 0.01 µM
  relative viability: 0.746
[1]; first compound 0.03162 µM
  relative viability: 0.652
[1]; first compound 0.1 µM
  relative viability: 0.666
[1]; first compound 0.3162 µM
  relative viability: 0.625
[1]; first compound 1 µM
  relative viability: 0.574
[2]; first compound 0.02 µM
  relative viability: 0.518
[2]; first compound 0.06325 µM
  relative viability: 0.58
[2]; first compound 0.2 µM
  relative viability: 0.661
[2]; first compound 0.6325 µM
  relative viability: 0.618
[2]; first compound 2 µM
  relative viability: 0.27
[3]; first compound 0.02 µM
  relative viability: 0.337
[3]; first compound 0.06325 µM
  relative viability: 0.314
[3]; first compound 0.2 µM
  relative viability: 0.363
[3]; first compound 0.6325 µM
  relative viability: 0.401
[3]; first compound 2 µM
  relative viability: 0.329
[4]; first compound 0.02 µM
  relative viability: 0.227
[4]; first compound 0.06325 µM
  relative viability: 0.242
[4]; first compound 0.2 µM
  relative viability: 0.227
[4]; first compound 0.6325 µM
  relative viability: 0.182
[4]; first compound 2 µM
  relative viability: 0.21

## LCLC-97TM1
[1]; first compound 0.01 µM
  relative viability: 0.233
[1]; first compound 0.03162 µM
  relative viability: 0.269
[1]; first compound 0.1 µM
  relative viability: 0.231
[1]; first compound 0.3162 µM
  relative viability: 0.214
[1]; first compound 1 µM
  relative viability: 0.265
[2]; first compound 0.02 µM
  relative viability: 0.556
[2]; first compound 0.06325 µM
  relative viability: 0.522
[2]; first compound 0.2 µM
  relative viability: 0.436
[2]; first compound 0.6325 µM
  relative viability: 0.461
[2]; first compound 2 µM
  relative viability: 0.145
[3]; first compound 0.02 µM
  relative viability: 0.201
[3]; first compound 0.06325 µM
  relative viability: 0.224
[3]; first compound 0.2 µM
  relative viability: 0.194
[3]; first compound 0.6325 µM
  relative viability: 0.211
[3]; first compound 2 µM
  relative viability: 0.145
[4]; first compound 0.02 µM
  relative viability: 0.21
[4]; first compound 0.06325 µM
  relative viability: 0.219
[4]; first compound 0.2 µM
  relative viability: 0.253
[4]; first compound 0.6325 µM
  relative viability: 0.269
[4]; first compound 2 µM
  relative viability: 0.113

## EPLC-272H
[1]; first compound 0.01 µM
  relative viability: 0.895
[1]; first compound 0.03162 µM
  relative viability: 0.812
[1]; first compound 0.1 µM
  relative viability: 0.846
[1]; first compound 0.3162 µM
  relative viability: 0.752
[1]; first compound 1 µM
  relative viability: 0.952
[2]; first compound 0.02 µM
  relative viability: 0.303
[2]; first compound 0.06325 µM
  relative viability: 0.264
[2]; first compound 0.2 µM
  relative viability: 0.307
[2]; first compound 0.6325 µM
  relative viability: 0.256
[2]; first compound 2 µM
  relative viability: 0.287
[3]; first compound 0.02 µM
  relative viability: 0.263
[3]; first compound 0.06325 µM
  relative viability: 0.253
[3]; first compound 0.2 µM
  relative viability: 0.254
[3]; first compound 0.6325 µM
  relative viability: 0.259
[3]; first compound 2 µM
  relative viability: 0.175
[4]; first compound 0.02 µM
  relative viability: 0.332
[4]; first compound 0.06325 µM
  relative viability: 0.319
[4]; first compound 0.2 µM
  relative viability: 0.333
[4]; first compound 0.6325 µM
  relative viability: 0.192
[4]; first compound 2 µM
  relative viability: 0.293

## NCI-H1915
[1]; first compound 0.01 µM
  relative viability: 0.981
[1]; first compound 0.03162 µM
  relative viability: 1.05
[1]; first compound 0.1 µM
  relative viability: 1.1
[1]; first compound 0.3162 µM
  relative viability: 1.08
[1]; first compound 1 µM
  relative viability: 1.05
[2]; first compound 0.02 µM
  relative viability: 0.679
[2]; first compound 0.06325 µM
  relative viability: 0.71
[2]; first compound 0.2 µM
  relative viability: 0.727
[2]; first compound 0.6325 µM
  relative viability: 0.674
[2]; first compound 2 µM
  relative viability: 0.603
[3]; first compound 0.02 µM
  relative viability: 0.452
[3]; first compound 0.06325 µM
  relative viability: 0.48
[3]; first compound 0.2 µM
  relative viability: 0.41
[3]; first compound 0.6325 µM
  relative viability: 0.418
[3]; first compound 2 µM
  relative viability: 0.428
[4]; first compound 0.02 µM
  relative viability: 0.704
[4]; first compound 0.06325 µM
  relative viability: 0.712
[4]; first compound 0.2 µM
  relative viability: 0.705
[4]; first compound 0.6325 µM
  relative viability: 0.703
[4]; first compound 2 µM
  relative viability: 0.713

## NCI-H2405
[1]; first compound 0.01 µM
  relative viability: 0.723
[1]; first compound 0.03162 µM
  relative viability: 0.932
[1]; first compound 0.1 µM
  relative viability: 0.831
[1]; first compound 0.3162 µM
  relative viability: 0.79
[1]; first compound 1 µM
  relative viability: 0.875
[2]; first compound 0.02 µM
  relative viability: 0.644
[2]; first compound 0.06325 µM
  relative viability: 0.698
[2]; first compound 0.2 µM
  relative viability: 0.648
[2]; first compound 0.6325 µM
  relative viability: 0.6
[2]; first compound 2 µM
  relative viability: 0.225
[3]; first compound 0.02 µM
  relative viability: 0.764
[3]; first compound 0.06325 µM
  relative viability: 0.768
[3]; first compound 0.2 µM
  relative viability: 0.73
[3]; first compound 0.6325 µM
  relative viability: 0.727
[3]; first compound 2 µM
  relative viability: 0.637
[4]; first compound 0.02 µM
  relative viability: 0.824
[4]; first compound 0.06325 µM
  relative viability: 0.924
[4]; first compound 0.2 µM
  relative viability: 0.762
[4]; first compound 0.6325 µM
  relative viability: 0.722
[4]; first compound 2 µM
  relative viability: 0.428
